Where two headings read alike, the source gives them in different places.
Legend:
Type in all cases: cell-based
P. aeruginosa [1] = assay: MIC, CLSI microdilution (Tables 1 and 6); details: Pseudomonas aeruginosa, Table 1, read-out: MIC of Iron Chelators
Protocol: (§1) The minimal inhibitory concentration (MIC) of non-toxic iron chelators was determined against standard strains of MDR bacteria and clinical isolates according to the guidelines of the Clinical and Laboratory Standards Institute (CLSI).
(§2) Individual MICs were determined following the microdilution method recommended by CLSI in cationic-adjusted Mueller-Hinton Broth (CAMHB), or M9 media. […] Tests were performed in triplicate. MIC of iron chelators were determined for noscomial ESKAPE pathogens.
(§3) MIC were determined in CAMHB media as described above in Example 8.

K. pneumonia [2] = assay: MIC, CLSI microdilution (Tables 1 and 6); details: Klebsiella pneumoniae, Table 1, read-out: MIC of Iron Chelators
Protocol: as §1, §2, §3

E. coli [3] = assay: MIC, CLSI microdilution (Tables 1 and 6); details: Escherichia coli, Table 1, read-out: MIC of Iron Chelators
Protocol: as §1, §2, §3

S. aureus = assay: MIC, CLSI microdilution (Tables 1 and 6); details: Staphylococcus aureus, Table 1, read-out: MIC of Iron Chelators
Protocol: as §1, §2, §3

Acinetobacter baumannii [4] = assay: MIC, CLSI microdilution (Tables 1 and 6)
Protocol: as §1, §2, §3

[5] = system: multi-drug resistant bacterial species; assay: Checkerboard, synergy with rifampin (summary)
Source text: Drug interactions were initially evaluated with the “checkerboard” microdilution design, which provided a matrix of all drug combinations assayed in terms of fractions of the previously determined MIC. The checkerboard microdilution design is described in R. J. Tallarida, “Drug Synergism: Its Detection and Applications,” Journal of Pharmacology and Experimental Therapeutics, 865-872 (2001); and in R. L. White, et al., (1996), supra. FIGS. 39A and 39B show the wellplates having different concentrations of iron chelator and antibiotic, as labeled along the x-axis and y-axis.
The checkerboard assay was used to asses other combinations of iron chelators and antibiotics. The fractional inhibitory concentration index (FIC), which was calculated as follows: FIC=(MIC A in combination/MIC A)+(MIC B in combination/MIC B). Interaction was defined as synergistic if the FIC was <1.0, preferably <0.5, no interaction if the FIC was >1.0 and <4.0, and antagonistic if the FIC was >4.0.
The assay was run against the multi-drug resistant bacterial species AB 19606, AB 17978, KP ndm, PA PAO1, PA 27853, EC 35718, and EC 43888. Blank spaces indicate concentrations not tested. […] Against the species PA PAO1 and PA 27853, all the antibiotics except for Ami.

E. coli EC35218 = assay: Time-kill assay in CAMHB
Protocol: Reductions in colony forming units (CFU)/mL were determined over time (time-kill assay) after exposure to VK28 and deferiprone (DFP), the two iron chelators that performed best in MIC assays when compared to controls. To better represent the iron content found in the human body, MIC and time-kill assays were also determined in minimal media and tissue culture media. Time-Kill assays were performed as previously described in G. P. Neupane et al., “In vitro time-kill activities of ciprofloxacin alone and in combination with the iron chelator deferasirox against Vibrio vulnificus,” European Journal of Clinical Microbiology and Infectious Diseases, 407-410 (2010); and R. L. White, et al., “Comparison of Three Different In Vitro Methods of Detecting synergy: Time-Kill, Checkerboard, and E test,” Journal of Antimicrobial Agents and Chemotherapy, 1914-1918 (1996). Initial inocula, for example 1×10^6 CFU/mL or 1×10^7 CFU/mL were challenged with iron chelator with and/or without an antibiotic. Cells were allowed to grow in CAMHB at 37° C. for 24 hours. Time-kill results were analyzed by determining the change in log 10 numbers of CFU/ml at 0, 6, and 24 h, compared to counts at 0 h. Antimicrobials were considered bactericidal at the lowest concentration that reduced the size of the original inoculum by >3 log 10 CFU/ml (99.9%) over each of the time periods and were considered bacteriostatic if the inoculum's size was reduced by 0 to <3 log 10 CFU/ml.
In this example, time-kill assays were performed as described in Example 9 against different multi-drug resistant bacteria, namely E. coli and MRSA.
In this example, time-kill assays were performed as described in Example 9 using ApoL1 as the iron chelator against two different E. coli strains. […] Time-kill results were analyzed by determining the change in log 10 numbers of CFU/mL at 6 and 24 hours.
In this example, time-kill assays were performed as described in Example 9 using Apo6619 as the iron chelator in combination with Rifampin against E. coli 35718. […] Time-kill results were analyzed by determining the change in log 10 numbers of CFU/mL at 0, 5 and 24 hours.

P. aeruginosa [6] = assay: MIC in RPMI1640 media (Table 2); details: Pseudomonas aeruginosa
Protocol: (§4) […] […] Tests were performed in triplicate. MIC of iron chelators were determined for noscomial ESKAPE pathogens.
(§5) This media is closer to the iron levels in the human body. MICs are in ug/mL.

K. pneumonia [7] = assay: MIC in RPMI1640 media (Table 2); details: Klebsiella pneumoniae
Protocol: as §4, §5

E. coli [8] = assay: MIC in RPMI1640 media (Table 2)
Protocol: as §4, §5

Acinetobacter baumannii [9] = assay: MIC in RPMI1640 media (Table 2)
Protocol: as §4, §5

[10] = ATCC43888, ATCC 43888 (0157:H7)
[11] = ATCC17978, ATCC 17978, Table 1, read-out: MIC of Iron Chelators
[12] = ATCC19606, ATCC 19606, Table 1, read-out: MIC of Iron Chelators
[13] = ATCC27853, ATCC 27853, read-out: MIC of Iron Chelators
[14] = PAO1, read-out: MIC of Iron Chelators
[15] = ATCC700603, ATCC 700603, read-out: MIC of Iron Chelators
[16] = BAA2146, BAA-2146, read-out: MIC of Iron Chelators
[17] = Escherichia coli, 35718, read-out: MIC of Iron Chelators
[18] = Escherichia coli, ATCC43888, ATCC 43888 (0157:H7), read-out: MIC of Iron Chelators
[19] = ATCC17978, ATCC 17978, read-out: MIC of Iron Chelators
[20] = ATCC19606, ATCC 19606, read-out: MIC of Iron Chelators
[21] = 1.5 MIC ApoL1 in combination with ¾MIC rifampin, CAMHB

Row | SMILES | MIC (P. aeruginosa [1]; ATCC27853, ATCC 27853) | MIC (P. aeruginosa [1]; PAO1) | MIC (K. pneumonia [2]; ATCC700603, ATCC 700603) | MIC (K. pneumonia [2]; BAA2146, BAA-2146) | MIC (E. coli [3]; ATCC35218, ATCC 35218) | MIC (E. coli [3]; [10]) | MIC (S. aureus; ATCC25923, ATCC 25923) | MIC (S. aureus; ATCC 43300 (MRSA)) | MIC (Acinetobacter baumannii [4]; [11]) | MIC (Acinetobacter baumannii [4]; [12]) | synergy with rifampin, checkerboard [5] | MIC (P. aeruginosa [6]; [13]) | MIC (P. aeruginosa [6]; [14]) | MIC (K. pneumonia [7]; [15]) | MIC (K. pneumonia [7]; [16]) | MIC (E. coli [8]; [17]) | MIC (E. coli [8]; [18]) | MIC (Acinetobacter baumannii [9]; [19]) | MIC (Acinetobacter baumannii [9]; [20]) | also measured
1 | OCCN1CCN(Cc2ccc(O)c3ncccc23)CC1 [VK28, 5-(4-(2-hydroxyethyl)piperazin-1-ylmethyl)-8-hydroxyquinoline] | > 500 µg/mL | > 500 µg/mL | > 500 µg/mL | > 500 µg/mL | > 500 µg/mL | > 500 µg/mL | 250 µg/mL | 250 µg/mL | 125 µg/mL | 125 µg/mL | moderate degrees of synergy | 16 µg/mL | 16 µg/mL | 16 µg/mL | 16 µg/mL | 32 µg/mL | 8 µg/mL | 32 µg/mL | 8 µg/mL | time-kill effect (E. coli EC35218; 1×MIC and 2×MIC VK28, CAMHB): bacteriostatic (considered bacteriostatic if the inoculum's size was reduced by 0 to <3 log 10 CFU/ml)
2 | Cc1c(O)c(=O)ccn1C [ApoL1, 3-hydroxy-1,2-dimethyl-4(1H)-pyridone] | > 500 µg/mL | 250 µg/mL | 500 µg/mL | 250 µg/mL | 500 µg/mL | 500 µg/mL | > 500 µg/mL | > 500 µg/mL | 125 µg/mL | 125 µg/mL | moderate degrees of synergy | 500 µg/mL | 125 µg/mL | 250 µg/mL | 250 µg/mL | 500 µg/mL | 250 µg/mL | 64 µg/mL | 125 µg/mL | reduction in CFU/mL (E. coli EC35218; [21]): greater than 3 log 10; time-kill effect (E. coli EC35218; [21]): bactericidal (considered bactericidal at the lowest concentration that reduced the size of the original inoculum by >3 log 10 CFU/ml (99.9%)); time-kill effect (E. coli EC35218; 1.5 MIC Iron Chelator alone, CAMHB): bacteriostatic (considered bacteriostatic if the inoculum's size was reduced by 0 to <3 log 10 CFU/ml)
3 | CNC(=O)c1c(O)c(=O)cc(C)n1C1CC1 [Apo6619, 1-cyclopropyl-3-hydroxy-6-methyl-4-oxo-1,4-dihydro-pyridine-2-carboxylic acid methylamide] | > 500 µg/mL | > 500 µg/mL | > 500 µg/mL | > 500 µg/mL | 250 µg/mL | 250 µg/mL | > 500 µg/mL | > 500 µg/mL | 250 µg/mL | 250 µg/mL | moderate degrees of synergy | > 500 µg/mL | 500 µg/mL | 500 µg/mL | 500 µg/mL | 250 µg/mL | 250 µg/mL | 64 µg/mL | 125 µg/mL | time kill curves (E. coli EC35218; E. coli 35718, 1.5×MIC Apo6619 in combination with 0.75×MIC Rifampin, 0, 5 and 24 hours): combinational effect
